How the values were obtained:
barnyardgrass [1] = test: Test C preemergence; assay type: in vivo, Echinochloa crusgalli; settings: 0 to 100 scale (0 no effect, 100 complete control)
Method in brief: (§1)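 Greenhouse herbicide screen, 10-day duration. Test chemicals in solvent/surfactant blend were sprayed onto soil at sowing (pre) or onto 2–10 cm seedlings at one to two leaves (post); injury scored visually against controls, 0 no effect to 100 complete control.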

blackgrass [2] = test: Test C preemergence; assay type: in vivo, Alopecurus myosuroides; settings: 0 to 100 scale (0 no effect, 100 complete control)
Method in brief: as §1

corn [3] = test: Test C preemergence; assay type: in vivo, Zea mays; settings: 0 to 100 scale (0 no effect, 100 complete control)
Method in brief: as §1

green foxtail [4] = test: Test C preemergence; assay type: in vivo, Setaria viridis; settings: 0 to 100 scale (0 no effect, 100 complete control)
Method in brief: as §1

kochia [5] = test: Test C preemergence; assay type: in vivo, Bassia scoparia; settings: 0 to 100 scale (0 no effect, 100 complete control)
Method in brief: as §1

oat, wild [6] = test: Test C preemergence; assay type: in vivo, Avena fatua; settings: 0 to 100 scale (0 no effect, 100 complete control)
Method in brief: as §1

pigweed, palmer [7] = test: Test C preemergence; assay type: in vivo, Amaranthus palmeri; settings: 0 to 100 scale (0 no effect, 100 complete control)
Method in brief: as §1

ragweed [8] = test: Test C preemergence; assay type: in vivo, Ambrosia artemisiifolia; settings: 0 to 100 scale (0 no effect, 100 complete control)
Method in brief: as §1

ryegrass, Italian [9] = test: Test C preemergence; assay type: in vivo, Lolium multiflorum; settings: 0 to 100 scale (0 no effect, 100 complete control)
Method in brief: as §1

soybean [10] = test: Test C preemergence; assay type: in vivo, Glycine max; settings: 0 to 100 scale (0 no effect, 100 complete control)
Method in brief: as §1

wheat [11] = test: Test C preemergence; assay type: in vivo, Triticum aestivum; settings: 0 to 100 scale (0 no effect, 100 complete control)
Method in brief: as §1

barnyardgrass [12] = test: Test C postemergence; assay type: in vivo, Echinochloa crusgalli; settings: 10 days
Method in brief: as §1

blackgrass [13] = test: Test C postemergence; assay type: in vivo, Alopecurus myosuroides; settings: 10 days
Method in brief: as §1

corn [14] = test: Test C postemergence; assay type: in vivo, Zea mays; settings: 10 days
Method in brief: as §1

green foxtail [15] = test: Test C postemergence; assay type: in vivo, Setaria viridis; settings: 10 days
Method in brief: as §1

kochia [16] = test: Test C postemergence; assay type: in vivo, Bassia scoparia; settings: 10 days
Method in brief: as §1

oat, wild [17] = test: Test C postemergence; assay type: in vivo, Avena fatua; settings: 10 days
Method in brief: as §1

pigweed, palmer [18] = test: Test C postemergence; assay type: in vivo, Amaranthus palmeri; settings: 10 days
Method in brief: as §1

ragweed [19] = test: Test C postemergence; assay type: in vivo, Ambrosia artemisiifolia; settings: 10 days
Method in brief: as §1

ryegrass, Italian [20] = test: Test C postemergence; assay type: in vivo, Lolium multiflorum; settings: 10 days
Method in brief: as §1

soybean [21] = test: Test C postemergence; assay type: in vivo, Glycine max; settings: 10 days
Method in brief: as §1

wheat [22] = test: Test C postemergence; assay type: in vivo, Triticum aestivum; settings: 10 days
Method in brief: as §1

horseweed = test: Test C postemergence; assay type: in vivo, Erigeron canadensis; settings: 10 days
Method in brief: as §1

barnyardgrass [23] = test: Test D flooded paddy test; assay type: in vivo, Echinochloa crus-galli; settings: 250 g ai/ha, applied to paddy water, visual rating after 13 to 14 days, scale 0 to 100 (0 no effect, 100 complete control)
Method in brief: (§2)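 Compounds go straight into paddy water over 2-leaf plants in pots flooded to 3 cm. Greenhouse holding lasts 13 to 14 days. Injury is scored by eye against controls from 0 (none) to 100 (complete control).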

ducksalad = test: Test D flooded paddy test; assay type: in vivo, Heteranthera limosa; settings: 250 g ai/ha, applied to paddy water, visual rating after 13 to 14 days, scale 0 to 100 (0 no effect, 100 complete control)
Method in brief: as §2

rice = test: Test D flooded paddy test; assay type: in vivo, Oryza sativa; settings: 250 g ai/ha, applied to paddy water, visual rating after 13 to 14 days, scale 0 to 100 (0 no effect, 100 complete control)
Method in brief: as §2

sedge, umbrella = test: Test D flooded paddy test; assay type: in vivo, Cyperus difformis; settings: 250 g ai/ha, applied to paddy water, visual rating after 13 to 14 days, scale 0 to 100 (0 no effect, 100 complete control)
Method in brief: as §2

[24] = Preemergence, 500 g ai/ha, visual rating after 10 days
[25] = Test C, preemergence, 125 g ai/ha
[26] = 125 g ai/ha, postemergence, 0 to 100 scale, 0 no effect, 100 complete control
[27] = Postemergence, 500 g ai/ha, visual 0 to 100 scale (0 no effect, 100 complete control)

CCc1ncn(-c2ccc(OC)c(C(=O)N3C[C@H](C)Oc4c(C)cccc43)c2)n1 [Compound 211]
Plant response rating, Barnyardgrass (barnyardgrass [1]; [24]): 100
Barnyardgrass plant response rating (barnyardgrass [1]; [25]): 100
Plant response rating, Blackgrass (blackgrass [2]; [24]): 90
Blackgrass plant response rating (blackgrass [2]; [25]): 90
Plant response rating, Corn (corn [3]; [24]): 70
Corn plant response rating (corn [3]; [25]): 70
Plant response rating, Foxtail, Green (green foxtail [4]; [24]): 100
Foxtail, Green plant response rating (green foxtail [4]; [25]): 0
Plant response rating, Kochia (kochia [5]; [24]): 100
Kochia plant response rating (kochia [5]; [25]): 100
Plant response rating, Oat, Wild (oat, wild [6]; [24]): 90
Oat, Wild plant response rating (oat, wild [6]; [25]): 70
Plant response rating, Pigweed, Palmer (pigweed, palmer [7]; [24]): 100
Pigweed, Palmer plant response rating (pigweed, palmer [7]; [25]): 100
Plant response rating, Ragweed (ragweed [8]; [24]): 100
Ragweed plant response rating (ragweed [8]; [25]): 100
Plant response rating, Ryegrass, Italian (ryegrass, Italian [9]; [24]): 100
Ryegrass, Italian plant response rating (ryegrass, Italian [9]; [25]): 100
Plant response rating, Soybean (soybean [10]; [24]): 100
Soybean plant response rating (soybean [10]; [25]): 100
Plant response rating, Wheat (wheat [11]; [24]): 80
Wheat plant response rating (wheat [11]; [25]): 80
Plant response rating, Barnyardgrass (barnyardgrass [12]; [26]): 80
Plant response rating, Barnyardgrass (barnyardgrass [12]; [27]): 100
Plant response rating, Blackgrass (blackgrass [13]; [26]): 90
Plant response rating, Blackgrass (blackgrass [13]; [27]): 100
Plant response rating, Corn (corn [14]; [26]): 70
Plant response rating, Corn (corn [14]; [27]): 90
Plant response rating, Foxtail, Green (green foxtail [15]; [26]): 90
Plant response rating, Foxtail, Green (green foxtail [15]; [27]): 90
Plant response rating, Kochia (kochia [16]; [26]): 70
Plant response rating, Kochia (kochia [16]; [27]): 90
Plant response rating, Oat, Wild (oat, wild [17]; [26]): 70
Plant response rating, Oat, Wild (oat, wild [17]; [27]): 90
Plant response rating, Pigweed, Palmer (pigweed, palmer [18]; [26]): 90
Plant response rating, Pigweed, Palmer (pigweed, palmer [18]; [27]): 100
Plant response rating, Ragweed (ragweed [19]; [26]): 50
Plant response rating, Ragweed (ragweed [19]; [27]): 70
Plant response rating, Ryegrass, Italian (ryegrass, Italian [20]; [26]): 70
Plant response rating, Ryegrass, Italian (ryegrass, Italian [20]; [27]): 90
Plant response rating, Soybean (soybean [21]; [26]): 100
Plant response rating, Soybean (soybean [21]; [27]): 100
Plant response rating, Wheat (wheat [22]; [26]): 70
Plant response rating, Wheat (wheat [22]; [27]): 90
Plant response rating, Horseweed (horseweed; [26]): 80
Plant response rating, Horseweed (horseweed; [27]): 90
Plant response rating, Barnyardgrass (Flood) (barnyardgrass [23]): 55
Plant response rating, Ducksalad (Flood) (ducksalad): 100
Plant response rating, Rice (Flood) (rice): 50
Plant response rating, Sedge, Umbrella (Flood) (sedge, umbrella): 100
